Reference: patent US20110287953A1, “METHOD FOR DISCOVERING POTENTIAL DRUGS” (priority 2010, published 2011)
Like-named read-outs stand apart in the source and are kept apart here.

How the values were obtained:
[1] = tested on: HCC cell lines, Mahlavu, PLC5, HepG2, and Huh7; assay: MTT cell viability test in HCC cell lines
Method: (§1) The HCC cell lines, Mahlavu, PLC5, HepG2, and Huh7, were cultured in Dulbecco's Modified Eagle Medium (DMEM; Seromed, Berlin, Germany) supplemented with 10% heat-inactivated fetal bovine serum, 100 μg/ml streptomycin, 100 μg/ml penicillin, and 2 mM L-glutamine in a humidified atmosphere containing 5% CO2 at 37° C. […] The cells were exposed to different concentrations of the small molecules for 72 hours. Control cells were incubated in the absence of small molecules. Afterwards, the cells were incubated with medium containing MTT for 2 hours. […] For the clonogenic assay, Huh7 cells were seeded out in appropriate dilutions in a 6-well plate and treated with selected small molecules at various concentrations for 15 days. Colonies were fixed with glutaraldehyde (6.0% v/v), stained with crystal violet (0.5% w/v), and counted.

[2] = tested on: Huh7 cells; assay: Clonogenic assay; format: cell-based; conditions: colony number at 10 μM; for inhibition at 10 µM: Homo sapiens, Huh-7, 360 h
Method: The HCC cell lines, Mahlavu, PLC5, HepG2, and Huh7, were cultured in Dulbecco's Modified Eagle Medium (DMEM; Seromed, Berlin, Germany) supplemented with 10% heat-inactivated fetal bovine serum, 100 μg/ml streptomycin, 100 μg/ml penicillin, and 2 mM L-glutamine in a humidified atmosphere containing 5% CO2 at 37° C. The viability of the exposed cells was determined using the MTT cell viability assay kit (Sigma-Aldrich, St. Louis, USA), according to the manufacturer's instructions. […] The cells were exposed to different concentrations of the small molecules for 72 hours. Control cells were incubated in the absence of small molecules. Afterwards, the cells were incubated with medium containing MTT for 2 hours. The optical density at 450 nm was measured using a microplate reader (Spectral Max250). For the clonogenic assay, Huh7 cells were seeded out in appropriate dilutions in a 6-well plate and treated with selected small molecules at various concentrations for 15 days. Colonies were fixed with glutaraldehyde (6.0% v/v), stained with crystal violet (0.5% w/v), and counted.

[3] = tested on: HCC cell lines; assay: Drug efficacy label of top 10 CMap drugs (MTT or clonogenic); format: cell-based; conditions: Table 2-3; labels (1) and (4); gene set in which the drug ranked top 10;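 note: label 1 means effective by MTT or clonogenic assay and 4 means ineffective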
Method: as §1

[4] = Table 3-1, HCC cell lines, 72 hours, MTT
[5] = 72 h, Table 2-2, HCC cell lines, MTT
[6] = 72 h, Table 3-1, HCC cell lines, MTT

O=C(O)CNC(=O)C(CS)Cc1ccccc1 (racemic) [DL-thiorphan]
IC50 [1, 4]: > 10 µM | Clonogenic assay ([2]; Table 3-1, 15 days): Ineffective

Nc1nc2nn[nH]c2c(=O)[nH]1 [8-azaguanine]
IC50 [1, 5]: > 10 µM | IC50 [1, 6]: > 10 µM | Clonogenic assay ([2]; Table 2-2, 15 days): Ineffective | Clonogenic assay ([2]; Table 3-1, 15 days): Ineffective | drug efficacy label [3]: 8-azaguanine (4)

C[C@]12CC[C@@H]3c4ccc(O)cc4CC[C@H]3[C@@H]1CC[C@H]2O [Alpha-estradiol]
IC50 [1, 5]: > 10 µM | Clonogenic assay ([2]; Table 2-2, 15 days): Ineffective | drug efficacy label [3]: Alpha-estradiol (4)

COc1ccccc1N1CCN(CCCCNC(=O)c2ccc3ccccc3c2)CC1.Cl.Cl [DO 897/99]
IC50 [1, 4]: > 10 µM | Clonogenic assay ([2]; Table 3-1, 15 days): Effective (Effectiveness in clonogenic assay is defined as reducing more than 50% colony number at 10 μM)

O=C1Nc2ccc3ncsc3c2/C1=C/Nc1ccc(S(=O)(=O)Nc2ccccn2)cc1 [GW-8510]
IC50 [1, 4]: 5 to 10 µM

CC(=O)[C@H]1CC[C@H]2[C@@H]3C[C@H](C)C4=CC(=O)CC[C@]4(C)[C@H]3[C@@H](O)C[C@]12C [Medrysone]
IC50 [1, 5]: > 10 µM | Clonogenic assay ([2]; Table 2-2, 15 days): Ineffective | drug efficacy label [3]: medrysone (4)

CCOc1cc(CC(=O)N[C@@H](CC(C)C)c2ccccc2N2CCCCC2)ccc1C(=O)O [Repaglinide]
IC50 [1, 5]: > 10 µM | Clonogenic assay ([2]; Table 2-2, 15 days): Ineffective | drug efficacy label [3]: repaglinide (4)

CCCCC(CC)CNC(=N)NC(=N)NCCCCCCNC(=N)NC(=N)NCC(CC)CCCC (stereo not drawn) [alexidine]
IC50 [1, 6]: 0.1 to 1 µM

Nc1ncn([C@@H]2O[C@H](CO)[C@@H](O)[C@H]2O)c(=O)n1 [azacitidine]
IC50 [1, 6]: > 10 µM | inhibition at 10 µM ([2]; Table 3-1, 15 days): > 50%

CC(C)COCC(CN(Cc1ccccc1)c1ccccc1)N1CCCC1 (stereo not drawn) [bepridil]
IC50 [1, 6]: 5 to 10 µM

CC[C@@]1(O)C(=O)OCc2c1cc1n(c2=O)Cc2cc3ccccc3nc2-1 [camptothecin]
IC50 [1, 6]: 0.1 to 1 µM

O=c1cc(-c2ccccc2)oc2cc(O)cc(O)c12 [chrysin]
IC50 [1, 6]: > 10 µM

Cc1cc(C2CCCCC2)n(O)c(=O)c1 [ciclopirox]
IC50 [1, 6]: 5 to 10 µM

Oc1c(I)cc(Cl)c2cccnc12 [clioquinol]
IC50 [1, 6]: 5 to 10 µM

N[C@@H]1CON=C1O [cycloserine]
IC50 [1, 6]: > 10 µM | Clonogenic assay ([2]; Table 3-1, 15 days): Ineffective

COc1ccc([C@@H]2Sc3ccccc3N(CCN(C)C)C(=O)[C@@H]2OC(C)=O)cc1 [diltiazem]
IC50 [1, 6]: > 10 µM

OCCN(CCO)c1nc(N2CCCCC2)c2nc(N(CCO)CCO)nc(N3CCCCC3)c2n1 [dipyridamole]
IC50 [1, 5]: > 10 µM | IC50 [1, 6]: > 10 µM | inhibition at 10 µM ([2]; Table 3-1, 15 days): > 50% | Clonogenic assay ([2]; Table 2-2, 15 days): Effective (Effectiveness in clonogenic assay is defined as reducing more than 50% colony number at 10 μM)

Cc1c2ccncc2c(C)c2c1[nH]c1ccccc12 [ellipticine]
IC50 [1, 6]: 0.1 to 1 µM

CC[C@H]1CN2CCc3cc(OC)c(OC)cc3[C@@H]2C[C@@H]1C[C@H]1NCCc2cc(OC)c(OC)cc21 [emetine]
IC50 [1, 6]: 0.1 to 1 µM

C[C@]12CC[C@@H]3c4ccc(O)cc4CC[C@H]3[C@@H]1C[C@@H](O)[C@@H]2O [estriol]
IC50 [1, 6]: > 10 µM

CC1CC(OC(=O)C(O)c2ccccc2)CC(C)(C)N1C (stereo not drawn) [eucatropine]
IC50 [1, 6]: > 10 µM

COc1c2ccoc2nc2c(OC)c(OCC(O)C(C)(C)O)ccc12 (stereo not drawn) [evoxine]
IC50 [1, 6]: > 10 µM | Clonogenic assay ([2]; Table 3-1, 15 days): Ineffective

CC(C(=O)O)c1cccc(Oc2ccccc2)c1 (stereo not drawn) [fenoprofen]
IC50 [1, 6]: > 10 µM

C[C@@H]1C(=O)O[C@H]2C[C@@]34[C@H]5C[C@@H](C(C)(C)C)[C@]36[C@@H](OC(=O)[C@@H]6O)O[C@@]4(C(=O)O5)[C@]21O [ginkgolide A]
IC50 [1, 4]: > 10 µM

Cc1ccc(S(=O)(=O)NC(=O)NN2CC3CCCC3C2)cc1 (stereo not drawn) [gliclazide]
IC50 [1, 6]: > 10 µM | Clonogenic assay ([2]; Table 3-1, 15 days): Ineffective

CC1=CC(=O)C2=C(C)CC[C@@H]3[C@H](OC(=O)[C@H]3C)[C@@H]12 [leucomisine]
IC50 [1, 4]: > 10 µM | Clonogenic assay ([2]; Table 3-1, 15 days): Ineffective

C#C[C@]1(O)CC[C@H]2[C@@H]3CCC4=CC(=O)CC[C@@H]4[C@H]3CC[C@@]21CC [levonorgestrel]
IC50 [1, 6]: > 10 µM

OC(c1cc(C(F)(F)F)nc2c(C(F)(F)F)cccc12)C1CCCCN1 (stereo not drawn) [mefloquine]
IC50 [1, 6]: 1 to 5 µM

Cc1cc2c(cc1S(N)(=O)=O)S(=O)(=O)CCC2 [meticrane]
IC50 [1, 6]: > 10 µM | Clonogenic assay ([2]; Table 3-1, 15 days): Ineffective

O=C1c2c(O)ccc(O)c2C(=O)c2c(NCCNCCO)ccc(NCCNCCO)c21 [mitoxantrone]
IC50 [1, 6]: 0.1 to 1 µM

Cc1ccsc1/C=C/C1=NCCCN1C [morantel]
IC50 ([1]; 72 h): > 10 µM

C#CCN(C)Cc1ccccc1 [pargyline]
IC50 [1, 6]: > 10 µM

O=C(O)c1ccccc1C(=O)Nc1ccc(S(=O)(=O)Nc2nccs2)cc1 [phthalylsulfathiazole]
IC50 [1, 6]: > 10 µM | Clonogenic assay ([2]; Table 3-1, 15 days): Ineffective

COc1cc(/C=C/C(=O)N2CCC=CC2=O)cc(OC)c1OC [piperlongumine]
IC50 [1]: 1 to 5 µM

CCN(CC)CCOC(=O)c1ccc(N)cc1 [procaine]
IC50 [1, 6]: > 10 µM

CCCNCC(O)COc1ccccc1C(=O)CCc1ccccc1 (stereo not drawn) [propafenone]
IC50 [1, 6]: > 10 µM | inhibition at 10 µM ([2]; Table 3-1, 15 days): > 50%

Oc1ccc(C=Cc2cc(O)cc(O)c2)cc1 [resveratrol]
drug efficacy label [3]: resveratrol (4)

Cn1c([N+](=O)[O-])cnc1COC(N)=O [ronidazole]
IC50 [1, 6]: > 10 µM

C=C(C)[C@H]1Cc2c(ccc3c2O[C@@H]2COc4cc(OC)c(OC)cc4[C@@H]2C3=O)O1 [rotenone]
IC50 [1, 6]: 0.1 to 1 µM

CC[C@H]1OC(=O)[C@H](C)[C@@H](O[C@H]2C[C@@](C)(OC)[C@@H](O)[C@H](C)O2)[C@H](C)[C@@H](O[C@@H]2O[C@H](C)C[C@H](N(C)C)[C@H]2O)[C@](C)(O)C[C@@H](C)/C(=N\OCOCCOC)[C@H](C)[C@@H](O)[C@]1(C)O [roxithromycin]
IC50 [1, 6]: > 10 µM

C[n+]1cc2c3c(ccc2c2ccc4cc5c(cc4c21)OCO5)OCO3 [sanguinarine]
IC50 ([1]; 72 h): 0.1 to 1 µM

COc1ccc2c(OC)c3ccoc3nc2c1OC [skimmianine]
IC50 [1, 6]: > 10 µM | inhibition at 10 µM ([2]; Table 3-1, 15 days): > 50%

O=C(CCCN1CCC2(CC1)C(=O)NCN2c1ccccc1)c1ccc(F)cc1 [spiperone]
inhibition at 10 µM ([2]; Table 3-1, 15 days): > 50%

Clc1ccc(CSC(Cn2ccnc2)c2ccc(Cl)cc2Cl)cc1 (stereo not drawn) [sulconazole]
inhibition at 10 µM ([2]; Table 3-1, 15 days): > 50% | Clonogenic assay ([2]; Table 2-2, 15 days): Effective (Effectiveness in clonogenic assay is defined as reducing more than 50% colony number at 10 μM)

COc1cnc(NS(=O)(=O)c2ccc(N)cc2)nc1 [sulfametoxydiazine]
IC50 [1, 6]: > 10 µM

C=CCNC1=C2C[C@@H](C)C[C@H](OC)[C@H](O)[C@@H](C)/C=C(\C)[C@H](OC(N)=O)[C@@H](OC)/C=C\C=C(/C)C(=O)NC(=CC1=O)C2=O [tanespimycin]
cell viability / cytotoxicity in HCC cell lines ([1]; 0.1, 1 and 10 μM, 72 hours, MTT): exhibited cytotoxicity effect | IC50 [1, 5]: < 0.1 µM | IC50 [1, 6]: < 0.1 µM | IC50 ([1]; 72 h, HCC cell lines): < 10 µM | drug efficacy label [3]: tanespimycin (1)

CSc1ccc2c(c1)N(CCC1CCCCN1C)c1ccccc1S2 (stereo not drawn) [thioridazine]
drug efficacy label [3]: thioridazine (1)

C=C(NC(=O)C(=C)NC(=O)c1csc(C2=N[C@@H]3c4csc(n4)[C@H]4NC(=O)c5csc(n5)[C@H]([C@](C)(O)[C@@H](C)O)NC(=O)[C@H]5CSC(=N5)/C(=C/C)NC(=O)[C@H]([C@@H](C)O)NC(=O)c5csc(n5)[C@]3(CC2)NC(=O)[C@H](C)NC(=O)C(=C)NC(=O)[C@H](C)NC(=O)[C@H]([C@@H](C)CC)N[C@@H]2C=Cc3c([C@H](C)O)cc(nc3[C@H]2O)C(=O)O[C@@H]4C)n1)C(N)=O [thiostrepton]
IC50 [1, 6]: 1 to 5 µM

CC(=O)Oc1cc(C(F)(F)F)ccc1C(=O)O [triflusal]
IC50 [1, 5]: > 10 µM | IC50 [1, 6]: > 10 µM | Clonogenic assay ([2]; Table 2-2, 15 days): Ineffective | Clonogenic assay ([2]; Table 3-1, 15 days): Ineffective

Cc1cc2cc3c(C)cc(=O)oc3c(C)c2o1 [trioxysalen]
IC50 [1, 6]: > 10 µM | inhibition at 10 µM ([2]; Table 3-1, 15 days): > 50%

CC1=C(CO)C(=O)O[C@@H]([C@@H](C)[C@H]2CC[C@H]3[C@@H]4C[C@H]5O[C@]56[C@@H](O)C=CC(=O)[C@]6(C)[C@H]4CC[C@]23C)C1 [withaferin A]
IC50 [1, 4]: 0.1 to 1 µM

CN(C)C/C=C(/c1ccc(Br)cc1)c1cccnc1 [zimeldine]
IC50 [1, 6]: > 10 µM | Clonogenic assay ([2]; Table 3-1, 15 days): Ineffective

tyloxapol
IC50 [1, 4]: 5 to 10 µM
